Reference: PubChem BioAssay AID2060340 (Molecular Pharmacology Branch, DTP, NCI, 2025)

System: 349418-098-R-PDC spheroids, viability, % test/control
Test: Anticancer human tumor 349418-098-R-PDC patient-derived lung adenocarcinoma cell line growth inhibition [IpAb]
Conditions: spheroids with HUVEC and MSC; for IC50: curve of first compound; for viability, T/C: stronger effect = lower value
Procedure, shortened: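 Spheroids of 60% malignant cells, 25% HUVEC and 15% MSC were exposed to targeted agents combined with ipatasertib or abemaciclib. Doses started at or near clinical Cmax (10 microM when unknown) and fell in half-log steps.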

[1] = second compound 0.01 µM, first compound 0.0316 µM
[2] = second compound 0.01 µM, first compound 0.1 µM
[3] = second compound 0.01 µM, first compound 0.316 µM
[4] = second compound 0.01 µM, first compound 1 µM
[5] = second compound 0.01 µM, first compound 3.16 µM
[6] = second compound 0.01 µM, first compound 10 µM
[7] = second compound 0.0316 µM, first compound 0.0316 µM
[8] = second compound 0.0316 µM, first compound 0.1 µM
[9] = second compound 0.0316 µM, first compound 0.316 µM
[10] = second compound 0.0316 µM, first compound 1 µM
[11] = second compound 0.0316 µM, first compound 3.16 µM
[12] = second compound 0.0316 µM, first compound 10 µM
[13] = second compound 0.1 µM, first compound 0.0316 µM
[14] = second compound 0.1 µM, first compound 0.1 µM
[15] = second compound 0.1 µM, first compound 0.316 µM
[16] = second compound 0.1 µM, first compound 1 µM
[17] = second compound 0.1 µM, first compound 3.16 µM
[18] = second compound 0.1 µM, first compound 10 µM
[19] = second compound 0.316 µM, first compound 0.0316 µM
[20] = second compound 0.316 µM, first compound 0.1 µM
[21] = second compound 0.316 µM, first compound 0.316 µM
[22] = second compound 0.316 µM, first compound 1 µM
[23] = second compound 0.316 µM, first compound 3.16 µM
[24] = second compound 0.316 µM, first compound 10 µM
[25] = second compound 1 µM, first compound 0.0316 µM
[26] = second compound 1 µM, first compound 0.1 µM
[27] = second compound 1 µM, first compound 0.316 µM
[28] = second compound 1 µM, first compound 1 µM
[29] = second compound 1 µM, first compound 3.16 µM
[30] = second compound 1 µM, first compound 10 µM

C=CC(=O)N1CCN(c2nc(=O)n(-c3c(C)ccnc3C(C)C)c3nc(-c4c(O)cccc4F)c(F)cc23)C(C)C1 (stereo not given) + CCN1CCN(Cc2ccc(Nc3ncc(F)c(-c4cc(F)c5nc(C)n(C(C)C)c5c4)n3)nc2)CC1
IC50 (second compound 0.01 µM): 4630 nM | IC50 (second compound 0.0316 µM): 124 nM | IC50 (second compound 0.1 µM): < 31.6 nM | IC50 (second compound 0.316 µM): < 31.6 nM | IC50 (second compound 1 µM): < 31.6 nM | viability, T/C [1]: 90.2% | viability, T/C [2]: 82.9% | viability, T/C [3]: 82.8% | viability, T/C [4]: 87.1% | viability, T/C [5]: 57.2% | viability, T/C [6]: 35.5% | viability, T/C [7]: 58.9% | viability, T/C [8]: 47.8% | viability, T/C [9]: 43.2% | viability, T/C [10]: 41.2% | viability, T/C [11]: 35.1% | viability, T/C [12]: 20.5% | viability, T/C [13]: 33.9% | viability, T/C [14]: 28.7% | viability, T/C [15]: 31.4% | viability, T/C [16]: 29.6% | viability, T/C [17]: 23.3% | viability, T/C [18]: 13.2% | viability, T/C [19]: 19.7% | viability, T/C [20]: 22% | viability, T/C [21]: 22.1% | viability, T/C [22]: 21.2% | viability, T/C [23]: 18.1% | viability, T/C [24]: 14.1% | viability, T/C [25]: 19.3% | viability, T/C [26]: 21.5% | viability, T/C [27]: 20.9% | viability, T/C [28]: 16% | viability, T/C [29]: 19.2% | viability, T/C [30]: 10.9%

CC(C)(C)c1cnc(CSc2cnc(NC(=O)C3CCNCC3)s2)o1 + CCN1CCN(Cc2ccc(Nc3ncc(F)c(-c4cc(F)c5nc(C)n(C(C)C)c5c4)n3)nc2)CC1
IC50 (second compound 0.01 µM): 24.1 nM | IC50 (second compound 0.0316 µM): < 9.49 nM | IC50 (second compound 0.1 µM): < 9.49 nM | IC50 (second compound 0.316 µM): < 9.49 nM | IC50 (second compound 1 µM): < 9.49 nM | viability, T/C (second compound 0.01 µM, first compound 0.00949 µM): 69.8% | viability, T/C (second compound 0.01 µM, first compound 0.03 µM): 45.4% | viability, T/C (second compound 0.01 µM, first compound 0.0949 µM): 8.31% | viability, T/C (second compound 0.01 µM, first compound 0.3 µM): 2.5% | viability, T/C (second compound 0.01 µM, first compound 0.949 µM): 2.72% | viability, T/C (second compound 0.01 µM, first compound 3 µM): 2.34% | viability, T/C (second compound 0.0316 µM, first compound 0.00949 µM): 47.7% | viability, T/C (second compound 0.0316 µM, first compound 0.03 µM): 36.2% | viability, T/C (second compound 0.0316 µM, first compound 0.0949 µM): 6.02% | viability, T/C (second compound 0.0316 µM, first compound 0.3 µM): 2.71% | viability, T/C (second compound 0.0316 µM, first compound 0.949 µM): 2.93% | viability, T/C (second compound 0.0316 µM, first compound 3 µM): 2.49% | viability, T/C (second compound 0.1 µM, first compound 0.00949 µM): 24.8% | viability, T/C (second compound 0.1 µM, first compound 0.03 µM): 17.7% | viability, T/C (second compound 0.1 µM, first compound 0.0949 µM): 4.01% | viability, T/C (second compound 0.1 µM, first compound 0.3 µM): 2.44% | viability, T/C (second compound 0.1 µM, first compound 0.949 µM): 3% | viability, T/C (second compound 0.1 µM, first compound 3 µM): 2.01% | viability, T/C (second compound 0.316 µM, first compound 0.00949 µM): 14.4% | viability, T/C (second compound 0.316 µM, first compound 0.03 µM): 13.7% | viability, T/C (second compound 0.316 µM, first compound 0.0949 µM): 1.91% | viability, T/C (second compound 0.316 µM, first compound 0.3 µM): 2.83% | viability, T/C (second compound 0.316 µM, first compound 0.949 µM): 3.36% | viability, T/C (second compound 0.316 µM, first compound 3 µM): 2.48% | viability, T/C (second compound 1 µM, first compound 0.00949 µM): 13.9% | viability, T/C (second compound 1 µM, first compound 0.03 µM): 9.5% | viability, T/C (second compound 1 µM, first compound 0.0949 µM): 2.29% | viability, T/C (second compound 1 µM, first compound 0.3 µM): 4.08% | viability, T/C (second compound 1 µM, first compound 0.949 µM): 4.05% | viability, T/C (second compound 1 µM, first compound 3 µM): 3.25%

Cn1nccc1Nc1nccc(-c2ccn(C(CO)c3ccc(Cl)c(F)c3)c(=O)c2)n1 (stereo not given) + CCN1CCN(Cc2ccc(Nc3ncc(F)c(-c4cc(F)c5nc(C)n(C(C)C)c5c4)n3)nc2)CC1
IC50 (second compound 0.01 µM): < 31.6 nM | IC50 (second compound 0.0316 µM): < 31.6 nM | IC50 (second compound 0.1 µM): < 31.6 nM | IC50 (second compound 0.316 µM): < 31.6 nM | IC50 (second compound 1 µM): < 31.6 nM | viability, T/C [1]: 34.3% | viability, T/C [2]: 31.1% | viability, T/C [3]: 28.1% | viability, T/C [4]: 27.3% | viability, T/C [5]: 23.5% | viability, T/C [6]: 19.9% | viability, T/C [7]: 21.5% | viability, T/C [8]: 23% | viability, T/C [9]: 18.6% | viability, T/C [10]: 18% | viability, T/C [11]: 17.1% | viability, T/C [12]: 16.3% | viability, T/C [13]: 13.1% | viability, T/C [14]: 13.4% | viability, T/C [15]: 13.2% | viability, T/C [16]: 12.7% | viability, T/C [17]: 13.3% | viability, T/C [18]: 13.5% | viability, T/C [19]: 11.6% | viability, T/C [20]: 11.1% | viability, T/C [21]: 11.2% | viability, T/C [22]: 10.8% | viability, T/C [23]: 13% | viability, T/C [24]: 13.2% | viability, T/C [25]: 12.7% | viability, T/C [26]: 10.4% | viability, T/C [27]: 11.1% | viability, T/C [28]: 11.7% | viability, T/C [29]: 12.5% | viability, T/C [30]: 12.2%
